Several values for one entry are separate records, joined by “and”; a condition that tells them apart may be missing. Equal values may be shown once. Where a name gives a salt, the structure may show the parent alone. Square brackets hold non-standard residues; d marks the D form. Peptide text beside a SMILES is read from it. Nle = CCCC[C@H](N)C(=O)O
Columns and labels:
[1] = tested on: SARS-CoV-2 (USA-WA1/2020 isolate); type: cell-based
[2] = tested on: MLV reporter luciferase virus pseudotyped with the SARS-CoV-2 Spike protein (SARS2-S)
[3] = tested on: SARS-CoV-2; type: cell-based
[4] = tested on: SARS2-S; experiment: microbe, parasite or virus in culture; type: cell-based, SARS-CoV-2; conditions: Severe acute respiratory syndrome coronavirus 2, read-out: SARS2-S IC50
[5] = tested on: VSV-G; experiment: microbe, parasite or virus in culture; type: cell-based; conditions: Vesicular stomatitis virus, read-out: VSV-G IC50
[6] = tested on: SARS1-S; experiment: microbe, parasite or virus in culture; type: cell-based, SARS-CoV-1
[7] = tested on: SARS2-S WT; experiment: microbe, parasite or virus in culture; type: cell-based, SARS-CoV-2; conditions: Severe acute respiratory syndrome coronavirus 2, read-out: WT IC50
[8] = tested on: main viral protease (MPRO); conditions: read-out: MPRO IC50; cited from earlier work

SMILES	activity against wild type SARS-CoV-2 (CPE) [1]	higher potency as compared to the best ReFRAME hit, SR-806 (VBY-825) [2] [fold]	higher specificity as compared to the best ReFRAME hit, SR-806 (VBY-825) [2]	therapeutic index (TI=CC50/IC50) [2]	EC50 ([1]; read-out: EC50, SARS-CoV-2-induced CPE assay)	activity in plaque assays of wild type SARS-CoV-2 infection [3]	IC50 [4] [µM]	IC50 [5] [µM]	less potent against SARS1-S than against SARS2-S [6] [fold]	IC50 ([6]; Severe acute respiratory syndrome coronavirus, read-out: SARS1-S IC50) [µM]	IC50 [7] [µM]	IC50 [8] [µM]
CN(C)C(=O)COC(=O)Cc1ccc(OC(=O)c2ccc(NC(=N)N)cc2)cc1 [Camostat mesylate, reference compound]	did not shown any activity	–	–	–	–	–	–	–	–	–	–	–
CCCC[C@@H](C=O)NC(=O)[C@H](CC(C)C)NC(=O)[C@H](CC(C)C)NC(C)=O [SR-372, calpain inhibitor I] (Ac-Leu-Leu-[Nle]-aldehyde)	–	3.5	> 3 fold	greater than 100	–	–	–	–	–	–	–	–
CCCC[C@@H](C=O)NC(=O)[C@H](CC(C)C)NC(=O)OCc1ccccc1 [SR-914, calpeptin]	–	7.1	higher than 7.1 fold	greater than 100	0.174 µM and 0.163 µM	further confirmed	0.0109 ± 0.00078	> 20	~8	0.0772 ± 0.00469	0.00378	10.4

Reference: paper PMC8577999 (Slas Discovery, 2021)
